Experimental findings from patent US20200352918A1, “COMPOUNDS AND METHODS FOR TREATING OR PREVENTING FIBROSIS” (priority 2019, published 2020) are described below.

The structures appear in SMILES notation.

The subject of one test is ocular mucosal fibrosis. Put plainly: Murine model of ocular mucosal fibrosis (OVA induced). Format: in vivo, mice. As to the method: Female […] mice 8-10 week of age were used for all experiments. The mice were housed in the institute's vivarium in compliance with the Animal Research Committee. Immune-mediated conjunctivitis was induced in by i.p. injection of 200 μl of immunization mix containing: 10 μg Ovalbumin (OVA) (Sigma-Aldrich), 4 mg aluminium hydroxide (Thermo Scientific), and 300 ng of pertussis toxin (Sigma-Aldrich). After 2 weeks, mice received topical OVA challenge ([…]) once a day for 7 days for the development of fibrosis. To evaluate the efficacy of AA5 in preventing fibrosis, topical OVA challenge was accompanied by addition of 1, 10, 100 or 1000 ug/mouse (n=12) AA5 administered in both eyes in a volume of 5 ul for a total of 7 days.
To evaluate the efficacy of AA5 in resolving fibrosis, topical OVA challenge was continued for an additional 7 days (days 14-21) after the initial OVA sensitization for the development of fibrosis. From day 21 to 28, OVA challenge was accompanied by addition of 1, 10, 100 or 1000 ug/mouse (n=12) AA5. 1% DMSO administered in both eyes in a 5 µl volume of PBS was used as control. Both eyes were scored in the same manner. For the scoring, a cumulative score of eyelid swelling (out of 3) and tearing (out of 3) was taken. At the end of the experiment at day 21 (prevention studies) or […] (resolution studies), mice were sacrificed and whole eyes were collected, fixed in 10% (v/v) formalin and processed by the standard methods for paraffin embedding. Sections (5 μm) were stained with Gomori Trichrome and H&E and imaged. Tissue sections were reviewed by 4 independent observers, including two observers who were blinded to the groups—a pathologist and another researcher. Conjunctivae were dissected from whole eyes and either processed for RNA or hydroxyproline.
Conjunctiva or LSCs were boiled in 50 μl or 400 μl of 6 M HCl, respectively at 100° C. overnight. Hydroxyproline levels were measured in the acid hydrolysis method using a kit from Biovision Inc. (Milpitas, Calif.) using the manufacturer's instructions. […]

The test system of test [1] is Idiopathic Pulmonary Fibrosis patient lung slices. In words: Ex vivo fibrotic lung slice culture (LSC) system. Format: cell-based, human. The method, then:
The Milliplex human cytokine/chemokine Panel IV, human TIMP Panel 2, and human TGFβ 1,2,3 magnetic bead kits (EMD Millipore) were used per manufacturer's instructions. Prior to plating, all samples tested for human TGFβ only were activated and neutralized with 1.0 N HCl and 1.0 N NaOH, respectively. Briefly, 25 μl of undiluted or treated cell culture supernatant samples were mixed with 25 μl of magnetic beads and allowed to incubate overnight at 4° C. while shaking. After washing the plates with wash buffer in a Biotek ELx405 washer, 25 μl of biotinylated detection antibody was added and incubated for 1 hour at room temperature while shaking. 25 μl of streptavidin-phycoerythrin conjugate was then added to the reaction mixture and incubated for another 30 minutes at room temperature while shaking. Following additional washes, beads were resuspended in sheath fluid, and fluorescence was quantified using a Luminex 200 instrument. Similarly, a custom magnetic Luminex assay kit of select analytes (R&D Systems) was used per manufacturer's instructions. Cell culture supernatants were prepared with a 2-fold dilution. 50 μl of diluted sample were added to 50 μl of provided micro-particle cocktail and incubated for 2 hours at room temperature while shaking. After washing with wash buffer, 50 μl of biotin antibody cocktail was added and incubated for 1 hour at room temperature while shaking. Following additional washes, 50 μl of diluted Streptavidin-PE was then added for incubation for 30 minutes at room temperature while shaking. The plate was then washed again and the micro-particles resuspended in 100 μl wash buffer. After an additional 2-minute incubation while shaking, the data was acquired using a Luminex 200 instrument.
Conditioned media at different time points of progression of the phenotype, and on prevention and resolution drug treatments were collected and quantification of protein was performed using the IBL man HMGB1 ELISA kit or LSBio NPTX1 ELISA kits per manufacturer's instructions. 10 μl of each supernatant sample was added to anti-HMGB1 polyclonal antibody-coated plate and incubated for 20 hours at 37° C. All liquid was then removed and the plate manually washed 5 times with wash buffer. 100 μl of enzyme conjugate was then added and incubated for 2 hours at room temperature. After washing again, color solution was added at 100 μl per well and incubated for 30 minutes at room temperature. Following an additional five washes, the plate was incubated with 90 μl of TMB substrate for another 15 minutes at 37° C. in the dark. The reaction was then stopped by addition 100 μl of stop solution. Absorbance was measured at 450 nm using a SpectraMAX Plate Reader. Data was analyzed using SoftMax Pro software.
In-vitro cultures of PF and cells in the iFA model were washed once with PBS and total RNA from the samples were extracted using the RNeasy Mini Kit (Qiagen) according to the manufacturer's instructions. For the lung slice cultures (LSC), tissues were snap-frozen after treatment and stored at −80° C. until RNA isolation. Lung slices were homogenized using a handheld homogenizer and passing the homogenate through a Qiashredder (Qiagen). Total RNA from the LSC and cells from the disease model were extracted using the RNeasy Mini Kit (Qiagen) according to the manufacturer's instructions. The RNA concentrations were measured on a NanoDrop ND-1000 spectrophotometer. Single-stranded cDNA was synthesized from 200 ng of total RNA using Superscript IV and random hexamer primers (Invitrogen) in a volume of 20 μl. cDNA was then used for qRT-PCR analysis. PCR reactions were performed using Taqman Gene Expression Assay mix (Applied Biosystems) according to the manufacturer's instructions.
All human samples were obtained in accordance with institute IRB. Tissue for lung slice experiments was obtained from patients with Idiopathic Pulmonary Fibrosis (IPF) at the time of lung transplant. […]

Consider `Cc1c(C(=O)Nc2nc3ccccc3s2)sc2nc3cc4c(cc3cc12)OCO4` [AA5], for which the “Gomori Trichrome sections of whole eyes: conjunctiva thickness and collagen deposition” value in the test on ocular mucosal fibrosis (AA5 1000 ug) is “qualitatively decreased thickness of conjunctiva and collagen deposition”. Further, the “Collagen content of the conjunctivae” value with ocular mucosal fibrosis (AA5-prevention and AA5-resolution at 0.1 and 1 mg doses) is listed as “significant reduction”. Moreover, in the test with ocular mucosal fibrosis (topical, preventive and resolutive treatments, vs DMSO-treated eyes), the “Clinical swelling, tearing and inflammation of eyes” value is “less clinical swelling, tearing and inflammation”. In addition, in test [1] (10 μM AA5, 48 hours), the “Secretion of matrix degrading proteases MMP-9 and uPA” value is listed as “increased secretion”. Also, the “ACTA-2, COL1A2 and TGF-β3 mRNA expression” value in test [1] (10 μM AA5, 48 hours, vs DMSO, not TGF-β1/2) was “significantly reduced”. Further, the “Secreted TGF-β3, TIMP-4 and POSTN protein” value in test [1] (10 μM AA5, 48 hours, not TGF-β1/2) was “decreased levels”. In test [1] (AA5-treated LSCs), the “NPTX1 mRNA and protein level” value was “upregulated”; the “Scavenger receptor CD163L1” value was “upregulated and secreted”. Further, the HMGB1 immunostaining result in test [1] (AA5-treated LSCs vs DMSO) is “exclusively nuclear staining”. In addition, the “Secreted HMGB1 (luminex)” value in test [1] (AA5-treated LSCs, 48 hours) was “markedly decreased”. Moreover, the “Reduction of fibrosis-initiating SSEA4+ cells” value in test [1] (AA5-treated LSCs, p value <0.001) is recorded as greater than 50%.
